Laboratory results as given in patent publication US7998988B2, “Biphenyl compounds useful in the treatment or prevention of cardiovascular disorders” (Bayer Schering Pharma Aktiengellschaft, priority 2005, dated 2011).
pIC50: −log10 of the molar value.

Experiments:
[1] = molecular target: T1, heme-containing recombinant soluble guanylate cyclase (sGC) (Rattus norvegicus, UniProt P20595); assay: Stimulation of recombinant soluble guanylate cyclase (sGC) in vitro, heme-containing; format: biochemical
T1 construct: made in house
T1 sequence (P20595 1-619): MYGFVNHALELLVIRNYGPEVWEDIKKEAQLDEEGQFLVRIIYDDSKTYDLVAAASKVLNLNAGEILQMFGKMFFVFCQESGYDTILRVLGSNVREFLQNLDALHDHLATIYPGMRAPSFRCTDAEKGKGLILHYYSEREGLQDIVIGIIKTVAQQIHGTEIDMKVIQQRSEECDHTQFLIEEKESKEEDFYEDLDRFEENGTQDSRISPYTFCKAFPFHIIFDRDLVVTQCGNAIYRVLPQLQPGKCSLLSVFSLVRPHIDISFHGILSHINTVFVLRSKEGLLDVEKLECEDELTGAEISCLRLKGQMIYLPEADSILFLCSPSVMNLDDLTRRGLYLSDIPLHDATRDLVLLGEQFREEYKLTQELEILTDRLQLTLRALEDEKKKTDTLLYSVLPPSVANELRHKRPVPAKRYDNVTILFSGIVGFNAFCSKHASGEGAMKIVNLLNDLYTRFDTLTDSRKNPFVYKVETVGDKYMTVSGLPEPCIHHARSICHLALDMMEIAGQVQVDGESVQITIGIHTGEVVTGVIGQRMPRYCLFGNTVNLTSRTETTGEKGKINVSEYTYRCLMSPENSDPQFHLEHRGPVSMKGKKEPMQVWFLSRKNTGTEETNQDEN
T1 sequence (P19686 1-690 partner): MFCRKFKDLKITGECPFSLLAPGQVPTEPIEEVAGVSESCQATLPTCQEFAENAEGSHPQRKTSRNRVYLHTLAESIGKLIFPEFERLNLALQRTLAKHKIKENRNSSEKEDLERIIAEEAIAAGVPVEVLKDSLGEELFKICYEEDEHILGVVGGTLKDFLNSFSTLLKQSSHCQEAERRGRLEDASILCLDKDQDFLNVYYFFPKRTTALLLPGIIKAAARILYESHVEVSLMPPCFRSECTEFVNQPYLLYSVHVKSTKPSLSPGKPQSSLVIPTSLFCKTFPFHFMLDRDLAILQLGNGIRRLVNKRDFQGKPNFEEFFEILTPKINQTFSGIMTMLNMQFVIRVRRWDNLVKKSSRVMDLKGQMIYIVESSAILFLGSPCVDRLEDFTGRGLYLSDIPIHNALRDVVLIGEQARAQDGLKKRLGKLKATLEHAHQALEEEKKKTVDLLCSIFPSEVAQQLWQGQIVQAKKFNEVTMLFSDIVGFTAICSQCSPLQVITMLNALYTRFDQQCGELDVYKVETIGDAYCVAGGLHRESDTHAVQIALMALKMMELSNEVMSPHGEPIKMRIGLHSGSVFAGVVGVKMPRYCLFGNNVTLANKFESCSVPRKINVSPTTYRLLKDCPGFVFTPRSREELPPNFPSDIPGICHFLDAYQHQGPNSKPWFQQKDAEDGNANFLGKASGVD
Source text: Hoenicka, E. M. Becker, H. Apeler, T. Sirichoke, H. Schroeder, R. Gerzer and J.-P. Stasch, “Purified soluble guanylyl cyclase expressed in a baculovirus/Sf9 system: Stimulation by YC-1, nitric oxide, and carbon oxide”, J. Mol. Med. 77 (1999), 14-23. The heme-free guanylate cyclase is obtained by adding Tween 20 to the sample buffer (0.5% in the final concentration).
(§1) The activation of sGC by a test substance is reported as n-fold stimulation of the basal activity.

[2] = test system: saphenous artery rings; assay: Vasorelaxant effect in vitro (phenylephrine-contracted artery rings); format: cell-based; settings: rabbit saphenous artery rings, contraction induced by phenylephrine
Description: Rabbits are anesthetized and sacrificed by intravenous injection of thiopental sodium (about 50 mg/kg) and exsanguinated. The saphenous artery is removed and divided into rings 3 mm wide. The rings are mounted singly on in each case a pair of triangular hooks open at the end and made of 0.3 mm-thick special wire (Remanium®). Each ring is placed under an initial tension in 5 ml organ baths with Krebs-Henseleit solution which is at 37° C., is gassed with 95% 02/5% CO2 and has the following composition: NaCl 119 mM; KCl 4.8 mM; CaCl2×2H2O 1 mM; MgSO4×7 H2O 1.4 mM; KH2PO4 1.2 mM; NaHCO3 25 mM; glucose 10 mM; bovine serum albumin 0.001%. The force of contraction is detected with Statham UC2 cells, amplified and digitized via A/D converters (DAS-1802 HC, Keithley Instruments, Munich) and recorded in parallel on chart recorders. Contractions are induced by addition of phenylephrine.
After several (generally 4) control cycles, the substance to be investigated is added in each further run in increasing dosage, and the height of the contraction achieved under the influence of the test substance is compared with the height of the contraction reached in the last preceding run. The concentration necessary to reduce the contraction reached in the preceding control by 50% is calculated from this (IC50). The standard application volume is 5 μl. The proportion of DMSO in the bath solution corresponds to 0.1%.

[3] = molecular target: T2, heme-free recombinant soluble guanylate cyclase (sGC) (Rattus norvegicus, UniProt P20595); assay: Stimulation of recombinant soluble guanylate cyclase (sGC) in vitro, heme-free; format: biochemical; settings: heme-free sGC (Tween 20)
T2 construct: made in house
T2 sequence (P20595 1-619): T1 sequence (P20595 1-619)
T2 sequence (P19686 1-690 partner): T1 sequence (P19686 1-690 partner)
Description: Investigations on the stimulation of recombinant soluble guanylate cyclase (sGC) by the compounds according to the invention with and without sodium nitroprusside, and with and without the heme-dependent sGC inhibitor 1H-1,2,4-oxadiazole-(4,3a)-quinoxalin-1-one (ODQ) are carried out by the method described in detail in the following reference: M. Hoenicka, E. M. Becker, H. Apeler, T. Sirichoke, H. Schroeder, R. Gerzer and J.-P. Stasch, “Purified soluble guanylyl cyclase expressed in a baculovirus/Sf9 system: Stimulation by YC-1, nitric oxide, and […]”, J. Mol. Med. 77 (1999), 14-23. The heme-free guanylate cyclase is obtained by adding Tween 20 to the sample buffer (0.5% in the final concentration).
as §1

`O=C(O)c1ccc(CCC(/C=C/c2ccccc2OCc2ccc(-c3ccc(C(F)(F)F)cc3)cc2)Cc2ccc(-c3noc(=O)[nH]3)cc2)cc1` (single isomer, unassigned) [Example 55, E-4-{3-[4-(5-Oxo-4,5-dihydro-[1,2,4]oxadiazol-3-yl)benzyl]-5-[2-(4′-trifluoromethylbiphenyl-4-ylmethoxy)phenyl]pent-4-enyl}benzoic acid] was tested, and the “Stimulation (n-fold) of sGC, +0.01 μM DEA/NO” value ([1]; 0.001 μM test substance) was 10.6 n-fold, the “Stimulation (n-fold) of sGC, +0.01 μM DEA/NO” value ([1]; 0.01 μM test substance) was 13.0 n-fold and the “Stimulation (n-fold) of sGC, +0.01 μM DEA/NO” value ([1]; 0.1 μM test substance) was 25.5 n-fold. For the same compound, the “Stimulation (n-fold) of sGC, +0.01 μM DEA/NO” value ([1]; 1 μM test substance) was 35.4 n-fold, the “Stimulation (n-fold) of sGC, +0.01 μM DEA/NO” value ([1]; 10 μM test substance) was 42.5 n-fold and the “Stimulation (n-fold) of sGC, +0.1 μM DEA/NO” value ([1]; 0.001 μM test substance) was 50.3 n-fold. The “Stimulation (n-fold) of sGC, +0.1 μM DEA/NO” value ([1]; 0.01 μM test substance) was 53.4 n-fold, the “Stimulation (n-fold) of sGC, +0.1 μM DEA/NO” value ([1]; 0.1 μM test substance) was 66.5 n-fold and the “Stimulation (n-fold) of sGC, +0.1 μM DEA/NO” value ([1]; 1 μM test substance) was 75.1 n-fold. For the same compound, the “Stimulation (n-fold) of sGC, +0.1 μM DEA/NO” value ([1]; 10 μM test substance) was 81.5 n-fold, the “Stimulation (n-fold) of sGC, +10 μM ODQ” value ([1]; 0.01 μM test substance) was 12.7 n-fold and the “Stimulation (n-fold) of sGC, +10 μM ODQ” value ([1]; 0.1 μM test substance) was 66.3 n-fold. For the same compound, the “Stimulation (n-fold) of sGC, +10 μM ODQ” value ([1]; 1 μM test substance) was 107.4 n-fold, the “Stimulation (n-fold) of sGC, +10 μM ODQ” value ([1]; 10 μM test substance) was 105.5 n-fold and the “Stimulation (n-fold) of sGC, Basal” value ([1]; 0.001 μM test substance) was 1.4 n-fold. For the same compound, the “Stimulation (n-fold) of sGC, Basal” value ([1]; 0.01 μM test substance) was 3.1 n-fold, the “Stimulation (n-fold) of sGC, Basal” value ([1]; 0.1 μM test substance) was 15.5 n-fold and the “Stimulation (n-fold) of sGC, Basal” value ([1]; 1 μM test substance) was 25.4 n-fold. The “Stimulation (n-fold) of sGC, Basal” value ([1]; 10 μM test substance) was 33.0 n-fold, the “Synergism with the NO donor DEA/NO on sGC stimulation” value ([1]; combination with DEA/NO) was “no synergistic effect” and the pIC50 [2] was 6.84. For the same compound, the “Stimulation (n-fold) of heme-free sGC, Basal” value ([3]; 0.001 μM test substance) was 3.7 n-fold, the “Stimulation (n-fold) of heme-free sGC, Basal” value ([3]; 0.01 μM test substance) was 24.0 n-fold and the “Stimulation (n-fold) of heme-free sGC, Basal” value ([3]; 0.1 μM test substance) was 98.1 n-fold. The “Stimulation (n-fold) of heme-free sGC, Basal” value ([3]; 1 μM test substance) was 132.6 n-fold and the “Stimulation (n-fold) of heme-free sGC, Basal” value ([3]; 10 μM test substance) was 137.9 n-fold.
